We go through three molecules from patent US4309425A (priority 1980, dated 1982).

In one assay the test system is two-spotted mites. The assay can be described thus: two-spotted mites on bean plants, spray, mortality after two days. It counts as in vivo. To be noted: Tetranychus urticae, 48 h, read-out: % Mortality (2 days); for mortality at 0.00025 %: spray concentration .00025%; for mortality at 0.0005 %: spray concentration .0005%; for mortality at 0.001 %: spray concentration .001%. The protocol:
Mortality was evaluated two days after spraying.
Mortality after two days is set forth below.

The subject of assay [1] is adult cotton boll weevils (Anthonomus grandis). In words: adult cotton boll weevils spray test. In kind it is in vivo. As to conditions: 1% acetone solution, 24 hours. The protocol:
Five adult cotton boll weevils (Anthonomus grandis) were confined in a 4-oz. wide mouth jar. These were sprayed with a 1% acetone solution of the indicated compounds. Percent mortality after 24 hours is set forth below.

Another assay concerns adult houseflies. In words: adult houseflies spray test. In kind it is in vivo, housefly. To be noted: Musca domestica; 1% acetone solutions, 24 hours. An excerpt:
Twenty adult houseflies were confined in each of several cylindrical stainless steel cages (7.5 cm D×4 cm high) with wire screens of the ends. These were sprayed with 1% acetone solutions of the indicated compounds.

The next assay relates to Venturia inaequalis. The assay can be described thus: apple scab preventive test. As to conditions: 10-12 days. It counts as in vivo. The protocol: Compounds of this invention are dissolved in acetone in an amount equal to 6% of the final volume and then suspended at a concentration of 20 ppm in purified water containing 25 ppm of the surfactant Alkanol® XC (sodium alkyl naphthalene sulfonate). This suspension is sprayed to the point of run-off on apple seedlings. The following day, the plants are inoculated with a spore suspension of the fungus Venturia inaequalis and incubated in a growth room for 10-12 days. Disease ratings are then made. […] Phytotoxicity in the form of foliar burn was observed on some of the plants in association with disease control.

For another assay, the system named is Rhizopus. The assay can be described thus: Rhizopus-corn meal mixture overspray test. As to conditions: 168 h, 100 ppm, 20° C., 7 days, read-out: % control Rhizopus. How it is done:
Compounds of this invention were dissolved in acetone in an amount equal to 6% of final volume and then suspended at a concentration of 100 ppm in purified water containing 500 ppm of the surfactant Alkanol® XC (sodium alkyl naphthalene sulfonate). This solution was oversprayed on a Rhizopus-corn meal mixture in 6 cm aluminum cups. The sprayed plates were placed in a closed plastic bag, stored at 20° C. for 7 days, and then rated.
The untreated cups were completely covered with Rhizopus mycelial growth, but the treated cups were mostly free of growth by this disease-causing organism.

In assay [2] the test system is organo-phosphorous resistant two-spotted spider mites. In words: organo-phosphorous resistant two-spotted spider mites on bean plants, spray, mortality after two days. As to conditions: Tetranychus urticae, 48 h, read-out: % Mortality (2 days).
For a further assay, the system named is mosquito larvae. In words: mosquito larvae test (failure to become adults). It counts as in vivo. As to conditions: 27°-30°, continuous light. How it is done: Twenty-five newly hatched mosquito larvae were placed in 25 ml of distilled water in 4 oz glass jars, and 10 mg diet, consisting of 2 parts liver powder and 1 part brewer's yeast, was added.
In assay [3] the test system is bean aphids (Aphis fabae). The assay can be described thus: bean aphids on nasturtium leaves, spray. It counts as in vivo. To be noted: 24 hours, read-out: 24 Hours Evaluation (% Kill). The protocol:
Stems of nasturtium leaves infested with bean aphids (Aphis fabae) were placed in individual vials of water. The leaves were sprayed to run-off with a series of suspensions of N-[N-[2-chloro-5-(trifluoromethyl)phenyl]-N-[2,4-dinitro-6-(trifluoromethyl)-phenyl]aminothio]-N,4-dimethylbenzenesulfonamide. Suspensions were prepared by dissolving 50 mg of the compound in 10 ml of acetone, adding 1 ml of 1% methocel 15, and diluting to volume with Duponol®:water at 1:3000. Evaluations with respect to % kill 24 hours later are set forth below.

A further assay deals with Pythium. In words: Pythium infested soil test, cotton. To be noted: 1.5 kg/ha, 8 days. In kind it is in vivo. From the text: Pythium infested soil was placed in a 900 cc cup. Compounds of this invention were mixed at a rate of 1.5 kg/ha in a section 2" wide×2" deep×4" long to simulate an in-the-row application. Five cotton seeds were planted in the treated soil. After 8 days, the cotton plants were removed and rated for disease control.

The subject of assay [4] is Phytophthora infestans. The assay can be described thus: whole plant or invertebrate. In kind it is in vivo. As to conditions: in Solanum lycopersicum, 96 h, read-out: % control tomato late blight in a residual wash-off test.
The test system of assay [5] is red-legged grasshoppers (Melanoplus femurrubrum). In words: red-legged grasshoppers spray test. In kind it is in vivo. As to conditions: 10 ppm in acetone, 48 hours. How it is done: Five red-legged grasshoppers (Melanoplus femurrubrum) were confined in each of several cylindrical stainless steel cages (7.5 cm D×4 cm high) with wire screens at the end. These were sprayed with 10 ppm concentration of the indicated compounds in acetone solution. Percent mortality after 48 hours is recorded below.

Assay [6] relates to brown dog ticks (Rhipicephalus sanguineus). The assay can be described thus: brown dog ticks spray test. It counts as in vivo. To be noted: 48 h, 12.5 ppm in acetone, forty eight hours. How it is done:
Four-ounce wide mouth jars, each containing 10 brown dog ticks (Rhipicephalus sanguineus), were sprayed with 12.5 ppm concentration of the indicated compounds in acetone solution. The ticks were confined with caps which were also sprayed. Forty eight hours later, percent mortality was determined.

In assay [7] the test system is Phytophthora infestans. It counts as in vivo. As to conditions: 20 ppm, 4 days.

Regarding `CCCCN(SN(c1cc(C(F)(F)F)ccc1Cl)c1c([N+](=O)[O-])cc([N+](=O)[O-])cc1C(F)(F)F)S(=O)(=O)c1ccccc1C`, in the assay with two-spotted mites, the mortality at 0.00025 % stood at 100%, the mortality at 0.0005 % was 100% and the mortality at 0.001 % worked out at 100%. In [1], this molecule registered a mortality at 1 % of 100%. In the assay on adult houseflies, the mortality at 1 % was found to be 100%. In the assay on Venturia inaequalis, the pest or weed control at 20 ppm is 100%. Further, the inhibition of growth at 100 ppm in the assay with Rhizopus came to 90%. Further, in assay [2], the mortality at 0.0005 % was determined as 90%, the mortality at 0.001 % came out at 89% and the mortality at 0.002 % amounted to 100%.

As for `Cc1ccc(S(=O)(=O)N(C)SN(c2cc(C(F)(F)F)ccc2Cl)c2c([N+](=O)[O-])cc([N+](=O)[O-])cc2C(F)(F)F)cc1`, in the assay with two-spotted mites, the mortality at 0.00025 % stood at 100%, the mortality at 0.0005 % is 100% and the mortality at 0.001 % was found to be 100%. The “EC50 (concentration at which 50% of the initial larvae fail to become adults)” value with mosquito larvae was 0.00081 ppm. For the same molecule, in [3] (spray concentration 0.005%), the mortality at 0.005 % is 100%. Further, the mortality at 0.1 % in assay [3] (spray concentration 0.1%) came out at 100%. Besides, the “% control Pythium” value in the assay with Pythium was determined as 0%. In the assay with Phytophthora infestans [4], the pest or weed control at 20 ppm stood at 100%. In assay [2], the mortality at 0.0005 % was found to be 93%, the mortality at 0.001 % was 97% and the mortality at 0.002 % was determined as 100%.

Take `CCCCN(SN(c1cc(C(F)(F)F)ccc1Cl)c1c([N+](=O)[O-])cc([N+](=O)[O-])cc1C(F)(F)F)S(=O)(=O)c1ccc(C)cc1`: the mortality at 1 % (in assay [1]; in the assay on adult houseflies) was 100% in each case. The mortality at 10 ppm in [5] worked out at 100%. Also, the mortality at 12.5 ppm in assay [6] was found to be 100%. The “% control Pythium” value in the assay with Pythium came out at 0%. Also, the pest or weed control at 20 ppm with Venturia inaequalis worked out at 75%; in the assay on Phytophthora infestans [4], 100%. Further, in the assay on Phytophthora infestans [7], the “% control tomato late blight in a preventive test” value stood at 100%.
